Test results as given in patent US6759420B1, “Arylalkanoyl derivatives, processes for their preparation, their use and pharmaceutical compositions containing them” (Aventis Pharma Deutschland GmbH, priority 1999, dated 2004).
Counter-ions that a name gives are not always drawn. Like-named read-outs stand apart in the source and are kept apart here.

How the values were obtained:
[1] = recombinantly-produced inhibitor, cited from earlier work; for bleeding time compared to other anticoagulants: animal model systems; for clotting in thromboplastin-induced, ligated jugular vein model of deep vein thrombosis: animal model
[2] = TAP at levels giving less than about two fold aPTT prolongation; heparin at doses causing a five fold increase in aPTT; cited from earlier work
[3] = target: T1, factor Xa (Homo sapiens, UniProt P00742); settings: background statement; cited from earlier work
[4] = test system: thrombin and factor Xa; settings: via anti-thrombin III; cited from earlier work
[5] = target: T1, factor Xa; assay: Factor Xa assay (Test 1a), chromogenic; format: biochemical; design: purchased Enzyme Research Laboratories, Inc; South Bend, Ind; settings: in vitro factor Xa assay Test 1a; human factor Xa 0.5 nM, substrate S-2765 140 μM, 25° C.; Ki from IC50 corrected for substrate competition
Text: The ability of a compound of formula (I) to inhibit factor Xa, thrombin, plasmin, elastase, and trypsin may be assessed by determining the concentration of compound of formula (I) that inhibits enzyme activity by 50% (IC50). Purified enzymes are used in chromogenic assays. To determine the inhibition constant, the IC50 value is corrected for competition with substrate using the formula:
Ki=IC50×(1/{1+((substrate concentration)/substrate Km)})
where Km is the Michaelis-Menten constant. Y. -C. Chen and W. H. Prusoff, Biochem. Pharmacol. 22: […] (1973), which is incorporated herein by reference.
TBS-PEG buffer (50 mM Tris-Cl, pH 7.8, 200 mM NaCl, 0.05% (w/v) PEG-8000, 0.02% (w/v) NaN3) is used for this assay. The IC50 is determined by combining in appropriate wells of a Costar half-area microtiter plate 25 μl human factor Xa (Enzyme Research Laboratories, Inc.; South Bend, Ind.) in TBS-PEG; 40 μl 10% (v/v) DMSO in TBS-PEG (uninhibited control) or various concentrations of the compound to be tested diluted in 10% (v/v) DMSO in TBS-PEG; and substrate S-2765 (N-benzyloxycarbonyl-D-Arg-Gly-L-Arg-p-nitroanilide; Kabi Pharmacia, Inc.; Franklin Ohio) in TBS-PEG.
The assays are performed by pre-incubating the compound of formula (I) plus enzyme for 10 min, then the assay is initiated by adding substrate to obtain a final volume of 100 μl. The initial velocity of chromogenic substrate hydrolysis is measured by the change in absorbance at 405 nm using a Bio-tek Instruments kinetic plate reader (Ceres UV900HDi) at 25° C. during the linear portion of the time course (usually 1.5 min after addition of substrate). The concentration of inhibitor that causes a 50% decrease in the rate of substrate hydrolysis is predicted by linear regression after plotting the relative rates of hydrolysis (compared to the uninhibited control) versus the log of the compound of formula (I) concentration. The enzyme concentration is 0.5 nM and substrate concentration is 140 μM.

[6] = subcutaneous; cited from earlier work

T1 sequence (P00742 235-488 limits assumed): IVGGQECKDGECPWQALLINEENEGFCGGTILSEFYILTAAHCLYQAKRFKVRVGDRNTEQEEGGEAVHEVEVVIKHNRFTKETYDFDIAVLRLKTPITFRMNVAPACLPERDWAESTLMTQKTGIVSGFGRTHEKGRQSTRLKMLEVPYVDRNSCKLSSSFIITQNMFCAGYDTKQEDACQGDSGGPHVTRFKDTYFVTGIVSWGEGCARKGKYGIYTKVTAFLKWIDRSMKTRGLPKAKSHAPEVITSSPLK
T1 sequence (P00742 41-179 limits assumed): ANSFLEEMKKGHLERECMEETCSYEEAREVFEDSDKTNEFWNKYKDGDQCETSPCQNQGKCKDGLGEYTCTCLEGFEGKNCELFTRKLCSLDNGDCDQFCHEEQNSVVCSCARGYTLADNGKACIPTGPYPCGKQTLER

Molecule | Ki [5] | also measured
tick anticoagulant peptide (YNRLCIKPRDWIDECDSNEGGERAYFRNGKGGCDSFWICPEDHTGADYYSSYRDCFNACI; UniProt P17726 1-60, looked up) [TAP, reference compound] |  | bleeding time compared to other anticoagulants [1]: decrease bleeding time; clotting in thromboplastin-induced, ligated jugular vein model of deep vein thrombosis [1]: prevent clotting; "high-shear" arterial thrombosis and "reduced flow" caused by polyester (DACRON) graft [2]: effectively prevents; Ki [3]: ~0.5 nM
heparin |  | thrombin inactivated faster than factor Xa [4]: approximately 100 times; "high-shear" arterial thrombosis and "reduced flow" caused by polyester (DACRON) graft [2]: did not prevent thrombosis
N=C(N)NCCCC(NC(=O)C(NC(=O)C(Cc1ccc(C(=N)N)cc1)C1CCCCC1)C1CCCCC1)C(N)=O (single isomer, unassigned) [Example 110] | 2 nM | 
N=C(N)c1ccc(CC(C(=O)NC(C(=O)NCC2CCN(C(=N)N)CC2)C2CCCCC2)c2cccc(F)c2)cc1 (single isomer, unassigned; less polar) [Example 161] | 8 nM | 
N=C(N)c1ccc(CNC(=O)[C@@H](NC(=O)C(Cc2ccc(C(=N)N)cc2)c2cccc(Cl)c2)C2CCCCC2)cc1 (mixture of isomers) [Example 157, N-[(S)-(4-Carbamimidoyl-benzylcarbamoyl)-cyclohexyl-methyl]-3-(4-carbamimidoyl-phenyl)-2-(R,S)-(3-chloro-phenyl)-propionamide hydrochloric acid salt] | 19 nM | 
CN(C)C(=O)[C@H](CCCNC(=N)N)NC(=O)[C@@H](NC(=O)C(Cc1ccc(C(=N)N)cc1)c1cccc(Br)c1)C1CCCCC1 (single isomer, unassigned; less polar) [Example 246] | 0.7 nM | 
CC(Cc1ccc(C(=N)N)cc1)(C(=O)N[C@@H](CC1CCCCC1)C(=O)N[C@@H](CCCNC(=N)N)C(N)=O)c1ccccc1 (mixture of isomers) [Example 100, 2-(S)-{2-(S)-[3-(4-Carbamimidoyl-phenyl)-2-(R,S)-methyl-2-phenyl-propionylamino]-3-cyclohexyl-propionylamino}-5-guanidino-pentanoic acid amide trifluoroacetic acid salt] | 440 nM | 
CC(=N)N1CCC(CNC(=O)[C@@H](NC(=O)C(Cc2ccc(C(=N)N)cc2)c2cccc(C(F)(F)F)c2)C2CCCCC2)CC1 (single isomer, unassigned; less polar) [Example 258] | 8 nM | 
N=C(N)NCCCC(NC(=O)C(NC(=O)C(Cc1ccc(C(=N)N)cc1)c1cccc(Br)c1)C1CCCCC1)C(N)=O (single isomer, unassigned; less polar) [Example 133] | 1 nM | 
N=C(N)NCCCC(NC(=O)C(NC(=O)C(Cc1ccc(C(=N)N)cc1)c1cccc(Cl)c1)C1CCCCC1)C(N)=O (single isomer, unassigned; more polar) [Example 125] | 2570 nM | 
N=C(N)NCCC[C@H](NC(=O)[C@@H](NC(=O)C(Cc1ccc(C(=N)N)cc1)c1cccnc1)C1CCCCC1)C(N)=O (stereo partly drawn) [Example 10, 2-(S)-{2-(S)-[3-(4-Carbamimidoyl-phenyl)-2-(R,S)-pyridin-3-yl-propionylamino]-2-cyclohexyl-acetylamino}-5-guanidino-pentanoic acid amide trifluoroactic acid salt] | 0.9 nM | 
N=C(N)c1ccc(CNC(=O)C(NC(=O)C(Cc2ccc(C(=N)N)cc2)C2CCCCC2)C2CCCCC2)cc1 (single isomer, unassigned; less polar) [Example 111] | 59 nM | 
N=C(N)NCCC[C@H](NC(=O)C(NC(=O)C(Cc1ccc(C(=N)N)cc1)C1CCCCC1)C1CCCCC1)C(=O)NCc1ccccc1 (stereo partly drawn) [Example 196, 2-(S)-{2-[3-(4-Carbamimidoyl-phenyl)-2-cyclohexyl-propionylamino]-2-cyclohexyl-acetylamino}-5-guanidino-pentanoic acid benzylamide trifluoroacetic acid salt] | 39 nM | 
CCCCOC(=O)[C@H](CCCNC(=N)N)NC(=O)[C@@H](NC(=O)C(Cc1ccc(C(=N)N)cc1)C1CCCCC1)C1CCCCC1 (single isomer, unassigned; less polar) [Example 188] | 22 nM | 
N=C(N)NCCC[C@H](NC(=O)[C@@H](NC(=O)C(Cc1ccc(C(=N)N)cc1)c1ccccc1)C1CCCCC1)C(N)=O (mixture of isomers) [Example 135, 2-(S)-{2-(S)-[3-(4-Carbamimidoyl-phenyl)-2-(R,S)-phenyl-propionylamino]-2-cyclohexyl-acetylamino}-5-guanidino-pentanoic acid amide hydrochloric acid salt] | 13 nM | 
N=C(N)c1ccc(CC(C(=O)NC(C(=O)NCC2CCN(C(=N)N)CC2)C2CCCCC2)c2cccc(Br)c2)cc1 (single isomer, unassigned; less polar) [Example 165] | 2 nM | 
N=C(N)c1ccc(CC(C(=O)N[C@H](C(=O)NCC2CCN(C(=N)N)CC2)C2CCCCC2)c2ccccc2OC(F)(F)F)cc1 (single isomer, unassigned; less polar) [Example 233] | 33 nM | 
N=C(N)c1ccc(CC(C(=O)NC(C(=O)NCC2CCN(C(=N)N)CC2)C2CCCCC2)C2CCCCC2)cc1 (single isomer, unassigned; less polar) [Example 113] | 6 nM | 
N=C(N)NCCCC(NC(=O)C(NC(=O)C(Cc1ccc(C(=N)N)cc1)c1cccc(F)c1)C1CCCCC1)C(N)=O (single isomer, unassigned; less polar) [Example 131] | 5 nM | 
CCOC(=O)C(CCCNC(=N)N)NC(=O)C(NC(=O)C(Cc1ccc(C(=N)N)cc1)C1CCCCC1)C1CCCCC1 (single isomer, unassigned; less polar) [Example 5] | 5 nM | 
N=C(N)c1ccc(CC(C(=O)N[C@H](C(=O)NCC2CCN(C(=N)N)CC2)C2CCCCC2)c2ccc(C(F)(F)F)cc2)cc1 (single isomer, unassigned; less polar) [Example 232] | 24 nM | 
N=C(N)c1ccc(CC(C(=O)NC(C(=O)NCC2CCN(C(=N)N)CC2)C2CCCCC2)c2ccc(Br)cc2)cc1 (single isomer, unassigned; less polar) [Example 177] | 1 nM | 
N=C(N)NCCC[C@H](NC(=O)C(NC(=O)C(Cc1ccc(C(=N)N)cc1)C1CCCCC1)C1CCCCC1)C(=O)NC(c1ccccc1)c1ccccc1 (stereo partly drawn) [Example 195, 2-(S)-2-[3-(4-Carbamimidoyl-phenyl)-2-cyclohexyl-propionylamino]-2-cyclohexyl-acetylamino}-5-guanidino-pentanoic acid benzhydryl-amide trifluoroacetic acid salt] | 32 nM | 
N=C(N)c1ccc(CC(C(=O)N[C@H](C(=O)NCC2CCN(C(=N)N)CC2)C2CCCCC2)c2ccc(Cl)cc2)cc1 (single isomer, unassigned; less polar) [Example 216] | 19 nM | 
N=C(N)c1ccc(CC(C(=O)NC(C(=O)NCCN2C(=O)CNC2=O)C2CCCCC2)C2CCCCC2)cc1 (single isomer, unassigned; less polar) [Example 7] | 7650 nM | 
N=C(N)NCCC[C@H](NC(=O)[C@@H](NC(=O)C(Cc1ccc(C(=N)N)cc1)c1ccc2ccccc2c1)C1CCCCC1)C(=O)O (mixture of isomers) [Example 79, 2-(S)-{2-(S)-[3-(4-Carbamimidoyl-phenyl)-2-(R,S)-naphthalen-2-yl-propionyl-amino]-2-cyclohexyl-acetylamino}-5-guanidino-pentanoic acid trifluoroacetic acid salt] | 22.5 nM | 
N=C(N)c1ccc(CC(C(=O)N[C@H](C(=O)NCC2CCN(C(=N)N)CC2)C2CCCCC2)c2ccccc2F)cc1 (stereo partly drawn) [Example 214, 3-(4-Carbamimidoyl-phenyl)-N-{(S)-[(1-carbamimidoyl-piperidin-4-ylmethyl)-carbamoyl]-cyclohexyl-methyl}-2-(2-fluoro-phenyl)-propionamide trifluoroacetic acid salt] | 47 nM | 
antistasin (protein, UniProt P15358 18-136, looked up) Antistasin: QGPFGPGCEEAGCPEGSACNIITDRCTCSGVRCRMHCPHGFQRSRYGCEFCKCRLEPMKATCDISECPEGMMCSRLTNKCDCKIDINCRKTCPNGLKRDKLGCEYCECRPKRKLIPRLS |  | treatment in thromboplastin-induced model of disseminated intravascular coagulation [6]: effective treatment; bleeding time compared to other anticoagulants [1]: decrease bleeding time; clotting in thromboplastin-induced, ligated jugular vein model of deep vein thrombosis [1]: prevent clotting; Ki [3]: 0.05 nM
